This is an account of results in article PMC11417675, “Systematic Evaluation of Tyrosine Kinase Inhibitors as OATP1B1 Substrates Using a Competitive Counterflow Screen” (Cancer Research Communications, 2024).

Where two headings read alike, the source gives them in different places.

Data set [1] deals with T1, OATP1B1 (Homo sapiens, UniProt Q9Y6L6).
T1 sequence (Q9Y6L6 1-691): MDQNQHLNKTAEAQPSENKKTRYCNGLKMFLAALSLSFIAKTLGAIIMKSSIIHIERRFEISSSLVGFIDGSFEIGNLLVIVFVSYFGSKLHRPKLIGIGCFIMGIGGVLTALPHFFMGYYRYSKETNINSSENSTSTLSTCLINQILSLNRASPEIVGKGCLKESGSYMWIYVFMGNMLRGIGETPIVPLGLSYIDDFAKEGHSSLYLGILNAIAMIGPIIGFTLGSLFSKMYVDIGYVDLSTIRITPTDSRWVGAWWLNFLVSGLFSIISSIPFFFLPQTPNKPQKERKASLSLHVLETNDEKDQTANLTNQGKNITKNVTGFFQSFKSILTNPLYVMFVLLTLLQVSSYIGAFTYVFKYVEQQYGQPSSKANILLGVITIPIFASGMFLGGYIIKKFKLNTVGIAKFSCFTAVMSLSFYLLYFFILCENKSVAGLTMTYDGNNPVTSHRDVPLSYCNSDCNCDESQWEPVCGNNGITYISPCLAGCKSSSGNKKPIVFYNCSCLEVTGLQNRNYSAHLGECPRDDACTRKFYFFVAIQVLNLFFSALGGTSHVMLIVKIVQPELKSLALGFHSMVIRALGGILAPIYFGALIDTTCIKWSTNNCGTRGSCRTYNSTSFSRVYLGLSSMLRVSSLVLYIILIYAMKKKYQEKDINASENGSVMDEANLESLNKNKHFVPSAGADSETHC
Description: Competitive counterflow (CCF) assay, efflux of preloaded [3H]-EβG in OATP1B1-overexpressing HEK293 cells. As to conditions: for efflux of preloaded radiolabeled EβG induced by control substrates: 100 μmol/L, 30 min, after 1 h preload with 0.01 μmol/L [3H]-EβG; for hit in CCF assay (efflux >50% relative to EβG): at all three tested concentrations (1, 10, 100 μmol/L). Here is the method:
Cellular accumulation assays were performed in human embryonic kidney cells (HEK293; RRID: CVCL_0045) that were genetically engineered to overexpress human OATP1B1 ([23]–[25]). Cell lines were authenticated by Applied Biosystems AmpFISTR Identifiler testing with PCR amplification. […] All cells were used within passage 30 and verified to be Mycoplasma-free using the MycoAlert Mycoplasma Detection Kit (Lonza). At 80% to 90% confluency, cells were seeded on poly-D-lysine–coated 96-well plates 24 hours prior to the assay (2,500 cells/well), and expression of OATP1B1 was induced with 1 μg/mL doxycycline in phenol red–free DMEM.
The CCF assay uses OATP1B1-overexpressing HEK293 cells seeded and cultured as described above. During the study, cells were preincubated at room temperature (∼ 20°C) with 0.01 μmol/L EβG in prewarmed serum-free and phenol red–free DMEM for 1 hour. Following preincubation, each well was spiked with 1 μL of a stock solution containing 0.1, 1, or 10 mmol/L of positive control (EβG), negative control (glucose), test compound dissolved in Dimethylsulfoxide (DMSO), or DMSO only as a vehicle control. Following a 30-minute after incubation with a test compound, the assay was stopped by three consecutive washes with PBS at 4°C. Finally, cells were solubilized with 150 μL of 1% Triton X-100 in PBS for 2 hours at room temperature under constant agitation. A volume of 100 μL of cell lysate was transferred to clear-bottom 96-well isoplates, 200 μL of MicroScint-PS (PerkinElmer) scintillation fluid was added to each sample-containing well, and the plate was subsequently vortex-mixed for 30 seconds. Total radioactivity was determined on a MicroBeta microplate scintillation counter (PerkinElmer), and the resulting counts were then normalized to total protein as determined using a Pierce protein assay (Thermo Fisher Scientific).

Data set [2] concerns OATP1B1. As to conditions: cited from earlier work; for reported to inhibit OATP1B1: literature reports, ref not given.
Another data set has as its system OCTN2. Details: method as in PMID#25165131. As to conditions: General Comments; ref PMID#25165131; cited from earlier work.
In another data set the test system is OATP2B1. As to conditions: General Comments; ref PMID#25165131; cited from earlier work.
Another data set relates to OATP1A2. As to conditions: General Comments; ref PMID#25165131; cited from earlier work.
Another data set concerns the target T2, VEGFR2 (Homo sapiens, UniProt P35968).
T2 construct: expressed in transfected cells; host or cells: HEK293 (OATP1B1-overexpressing or empty vector)
Description: IP-based VEGFR kinase assay (ADP-Glo) in OATP1B1-overexpressing vs vector control HEK293 cells. To be noted: 10 μmol/L, 1 h; OATP1B1-overexpressing cells compared with control cells not overexpressing OATP1B1. Type of data set: cell-based. A general note: In ADP-Glo the light output rises with the ADP produced.

T2 sequence (P35968 20-1356, species assumed): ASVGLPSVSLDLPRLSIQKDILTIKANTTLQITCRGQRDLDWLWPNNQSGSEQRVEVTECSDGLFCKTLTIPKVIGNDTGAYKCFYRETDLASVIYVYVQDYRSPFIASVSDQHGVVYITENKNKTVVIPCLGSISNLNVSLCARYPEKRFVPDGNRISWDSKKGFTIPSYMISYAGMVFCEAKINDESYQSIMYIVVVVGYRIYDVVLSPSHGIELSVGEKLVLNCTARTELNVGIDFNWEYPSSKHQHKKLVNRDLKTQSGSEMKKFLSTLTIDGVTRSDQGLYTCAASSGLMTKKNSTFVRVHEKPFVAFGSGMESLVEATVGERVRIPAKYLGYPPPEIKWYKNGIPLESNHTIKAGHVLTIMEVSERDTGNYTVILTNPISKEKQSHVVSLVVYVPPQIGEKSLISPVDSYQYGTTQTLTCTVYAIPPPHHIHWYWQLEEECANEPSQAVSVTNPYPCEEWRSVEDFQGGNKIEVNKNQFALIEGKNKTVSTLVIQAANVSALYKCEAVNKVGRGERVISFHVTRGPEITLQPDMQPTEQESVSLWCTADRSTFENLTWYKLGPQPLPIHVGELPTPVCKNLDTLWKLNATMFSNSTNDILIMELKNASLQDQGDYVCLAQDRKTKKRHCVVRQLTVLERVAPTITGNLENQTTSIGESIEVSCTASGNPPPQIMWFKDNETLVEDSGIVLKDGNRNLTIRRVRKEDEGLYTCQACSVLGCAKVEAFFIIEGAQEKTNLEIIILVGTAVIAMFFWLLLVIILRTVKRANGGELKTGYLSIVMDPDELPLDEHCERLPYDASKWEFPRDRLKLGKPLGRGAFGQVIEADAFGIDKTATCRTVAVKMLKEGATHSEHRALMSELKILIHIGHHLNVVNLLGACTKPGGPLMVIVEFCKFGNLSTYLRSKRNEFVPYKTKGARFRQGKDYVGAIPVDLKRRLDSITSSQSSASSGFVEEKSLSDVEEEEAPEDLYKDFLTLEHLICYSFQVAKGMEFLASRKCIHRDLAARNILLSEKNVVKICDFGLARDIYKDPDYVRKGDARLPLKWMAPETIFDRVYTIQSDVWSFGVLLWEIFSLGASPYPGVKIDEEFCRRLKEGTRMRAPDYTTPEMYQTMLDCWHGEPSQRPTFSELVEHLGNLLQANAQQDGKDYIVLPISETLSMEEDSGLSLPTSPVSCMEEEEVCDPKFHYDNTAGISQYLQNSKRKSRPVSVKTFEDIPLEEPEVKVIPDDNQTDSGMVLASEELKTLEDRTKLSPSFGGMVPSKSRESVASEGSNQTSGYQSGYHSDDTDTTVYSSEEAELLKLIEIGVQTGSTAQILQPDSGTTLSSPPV

Consider `CNC(=O)c1ccccc1Sc1ccc2c(/C=C/c3ccccn3)n[nH]c2c1` [Axitinib], for which, on OATP1B1 [1] (1, 10 and 100 μmol/L), the “pattern of efflux vs concentration in CCF assay” value is reported as “solely at lower concentrations”. The “previously claimed to be substrates of OATP1B1” value (“previously claimed” below) in the data set with OATP1B1 [2] is listed as “substrates of OATP1B1”.
On to `COc1cc2nccc(Oc3ccc(NC(=O)C4(C(=O)Nc5ccc(F)cc5)CC4)cc3)c2cc1OC` [Cabozantinib], for which, at OATP1B1 [1] (1, 10 and 100 μmol/L), the “pattern of efflux vs concentration in CCF assay” value is on record as “solely at lower concentrations”.
The same measure, in the same setting: the entry for `Cc1cc(Nc2ncc(Cl)c(Nc3ccccc3S(=O)(=O)C(C)C)n2)c(OC(C)C)cc1C1CCNCC1` [Ceritinib] is “clearly dependent on concentration”; for `O=C(c1ccc(F)c(F)c1Nc1ccc(I)cc1F)N1CC(O)([C@@H]2CCCCN2)C1` [Cobimetinib] it is “clearly dependent on concentration”.
With `C[C@@H](Oc1cc(-c2cnn(C3CCNCC3)c2)cnc1N)c1c(Cl)ccc(F)c1Cl` [Crizotinib], on OATP1B1 [1] (1, 10 and 100 μmol/L), the “pattern of efflux vs concentration in CCF assay” value is reported as “clearly dependent on concentration”. The “previously claimed” value with OATP1B1 [2] is reported as “substrates of OATP1B1”.
As to `CC(C)(C)c1nc(-c2cccc(NS(=O)(=O)c3c(F)cccc3F)c2F)c(-c2ccnc(N)n2)s1` [Dabrafenib], the “pattern of efflux vs concentration in CCF assay” value on OATP1B1 [1] (1, 10 and 100 μmol/L) is listed as “solely at lower concentrations”.
Consider `Cc1nc(Nc2ncc(C(=O)Nc3c(C)cccc3Cl)s2)cc(N2CCN(CCO)CC2)n1` [Dasatinib], for which, at OATP1B1 [1] (1, 10 and 100 μmol/L), the “pattern of efflux vs concentration in CCF assay” value is recorded as “solely at lower concentrations”.
As to `C[C@]12CC[C@@H]3c4ccc(OS(=O)(=O)O)cc4CC[C@H]3[C@@H]1CCC2=O` [E3S, estrone-3-sulfate], the “efflux of preloaded radiolabeled EβG induced by control substrates” value (“efflux … by control substrates” for short) on OATP1B1 [1] is “induced significant efflux”.
Take `COC(=O)N[C@@H](C)CNc1nccc(-c2cn(C(C)C)nc2-c2cc(Cl)cc(NS(C)(=O)=O)c2F)n1` [Encorafenib]: the “reported to inhibit OATP1B1” value with OATP1B1 [2] is reported as “reported to inhibit OATP1B1”.
On to `C[C@]12CC[C@@H]3c4ccc(O)cc4CC[C@H]3[C@@H]1CC[C@@H]2O[C@@H]1O[C@H](C(=O)O)[C@@H](O)[C@H](O)[C@H]1O` [EβG, estradiol [6,7-^3H(N)]-17β-D-glucuronide], for which, at OATP1B1 [1], the “efflux … by control substrates” value is recorded as “induced significant efflux”.
In the case of `COc1cc(Nc2ncc(F)c(Nc3ccc4c(n3)N(COP(=O)(O)O)C(=O)C(C)(C)O4)n2)cc(OC)c1OC` [Fostamatinib], on OATP1B1 [1], the “hit in CCF assay (efflux >50% relative to EβG)” value was “hits”.
For `CS(=O)(=O)CCNCc1ccc(-c2ccc3ncnc(Nc4ccc(OCc5cccc(F)c5)c(Cl)c4)c3c2)o1` [Lapatinib], the “pattern of efflux vs concentration in CCF assay” value at OATP1B1 [1] (1, 10 and 100 μmol/L) is “solely at lower concentrations”.
As to `CCOc1cc2ncc(C#N)c(Nc3ccc(OCc4ccccn4)c(Cl)c3)c2cc1NC(=O)/C=C/CN(C)C` [Neratinib], the “OCTN2 inhibition (in words)” value in the data set with OCTN2 is “No inhibition of OATP1B1 and OCTN2 was observed at concentrations up to 10 µM”. For the same compound, the IC50 (commonly the concentration that gives 50% inhibition) in the data set on OATP2B1 was 2.68 µM; in the data set on OATP1A2 it was 0.39 µM.
As to `Cc1cn(-c2cc(NC(=O)c3ccc(C)c(Nc4nccc(-c5cccnc5)n4)c3)cc(C(F)(F)F)c2)cn1` [Nilotinib], the “pattern of efflux vs concentration in CCF assay” value on OATP1B1 [1] (1, 10 and 100 μmol/L) is reported as “solely at lower concentrations”.
As to `COC(=O)c1ccc2c(c1)NC(=O)/C2=C(\Nc1ccc(N(C)C(=O)CN2CCN(C)CC2)cc1)c1ccccc1` [Nintedanib], the “pattern of efflux vs concentration in CCF assay” value at OATP1B1 [1] (1, 10 and 100 μmol/L) is “clearly dependent on concentration”.
As to `C=CC(=O)Nc1cc(Nc2nccc(-c3cn(C)c4ccccc34)n2)c(OC)cc1N(C)CCN(C)C` [Osimertinib], the “pattern of efflux vs concentration in CCF assay” value at OATP1B1 [1] (1, 10 and 100 μmol/L) is “clearly dependent on concentration”.
As for `Cc1ccc(Nc2nccc(N(C)c3ccc4c(C)n(C)nc4c3)n2)cc1S(N)(=O)=O` [Pazopanib], the “VEGFR kinase activity after pazopanib” value on VEGFR2 is “markedly reduced kinase activity”. In addition, in the data set with OATP1B1 [2], the “previously claimed” value was “substrates of OATP1B1” and the “reported to inhibit OATP1B1” value was “reported to inhibit OATP1B1”.
Turning to `FC(F)(F)c1ccc(CNc2ccc(Cc3c[nH]c4ncc(Cl)cc34)cn2)cn1` [Pexidartinib], on OATP1B1 [1] (1, 10 and 100 μmol/L), the “pattern of efflux vs concentration in CCF assay” value was “solely at lower concentrations”.
For the compound `Cc1ccc(C(=O)Nc2ccc(CN3CCN(C)CC3)c(C(F)(F)F)c2)cc1C#Cc1cnc2cccnn12` [Ponatinib], in the data set with OATP1B1 [2], the “Interaction: Substrate OATP1B1” value was “N”; the “OATP1B1 inhibition (in words)” value was “Inhibits P-gp( IC50 =0.49uM), BCRP (IC50 = 0.013 µM). Did not inhibit OATP1B1, OATP1B3, OCT1, OCT2, OAT1, or OAT3. Not a substrate of OATP1B1, OATP1B3, or OCT1”; the “OATP1B1 substrate (in words)” value is listed as “Inhibits P-gp( IC50 =0.49uM), BCRP (IC50 = 0.013 µM). Did not inhibit OATP1B1, OATP1B3, OCT1, OCT2, OAT1, or OAT3. Not a substrate of OATP1B1, OATP1B3, or OCT1”.
Turning to `CO[C@]1(C(=O)N[C@@H](C)c2ccc(-n3cc(F)cn3)nc2)CC[C@H](c2nc(C)cc(Nc3cc(C)[nH]n3)n2)CC1` [Pralsetinib], the “pattern of efflux vs concentration in CCF assay” value at OATP1B1 [1] (1, 10 and 100 μmol/L) was “solely at lower concentrations”. Also, the “reported to inhibit OATP1B1” value in the data set with OATP1B1 [2] is “reported to inhibit OATP1B1”.
With `Cn1cnc2c(F)c(Nc3ccc(Br)cc3Cl)c(C(=O)NOCCO)cc21` [Selumetinib], at OATP1B1 [1] (1, 10 and 100 μmol/L), the “pattern of efflux vs concentration in CCF assay” value is on record as “solely at lower concentrations”.
In the case of `CNC(=O)c1cc(Oc2ccc(NC(=O)Nc3ccc(Cl)c(C(F)(F)F)c3)cc2)ccn1` [Sorafenib], the “hit in CCF assay (efflux >50% relative to EβG)” value at OATP1B1 [1] was “hits”. Besides, the “previously claimed” value in the data set with OATP1B1 [2] is “substrates of OATP1B1”.
Regarding `CCN(CC)CCNC(=O)c1c(C)[nH]c(/C=C2\C(=O)Nc3ccc(F)cc32)c1C` [Sunitinib], the “pattern of efflux vs concentration in CCF assay” value at OATP1B1 [1] is “clearly dependent on concentration”.
With `Cc1cc(Nc2ncnc3ccc(NC4=NC(C)(C)CO4)cc23)ccc1Oc1ccn2ncnc2c1` [Tucatinib], the “pattern of efflux vs concentration in CCF assay” value on OATP1B1 [1] (1, 10 and 100 μmol/L) is recorded as “solely at lower concentrations”.
For `COc1cc2c(Nc3ccc(Br)cc3F)ncnc2cc1OCC1CCN(C)CC1` [Vandetanib], at OATP1B1 [1] (1, 10 and 100 μmol/L), the “pattern of efflux vs concentration in CCF assay” value is “clearly dependent on concentration”.
As for `OC[C@H]1OC(O)[C@H](O)[C@@H](O)[C@@H]1O` (some centres unmarked) [glucose], at OATP1B1 [1], the “efflux … by control substrates” value is “failed to induce efflux”.
On the same count and under the same terms, the same measure for `CC[C@H](C)C(=O)O[C@H]1C[C@H](O)C=C2C=C[C@H](C)[C@H](CC[C@@H](O)C[C@@H](O)CC(=O)O)[C@H]21` [pravastatin]: “induced significant efflux”.
Regarding `CO[C@H]1/C=C/O[C@@]2(C)Oc3c(C)c(O)c4c(O)c(c(/C=N/N5CCN(C)CC5)c(O)c4c3C2=O)NC(=O)/C(C)=C\C=C\[C@H](C)[C@H](O)[C@@H](C)[C@@H](O)[C@@H](C)[C@H](OC(C)=O)[C@@H]1C` [rifampin], the “efflux … by control substrates” value on OATP1B1 [1] is on record as “induced significant efflux”.
